Test results reported in patent publication US20060079453A1, “Hla binding peptides and their uses” (priority 2002, published 2006).
Like-named read-outs stand apart in the source and are kept apart here. No end group written: not given here.

Legend:
Experiment in all cases: biochemical
Assay type in all cases: binding
[1] = biological target: HLA-DR DRB1*0301 (DR3) (Homo sapiens, UniProt P01903+P01911, A100K/A102G/A103R/A169T/F55Y/I96L/K41T/L162R/M171V/P40S/Q125H/Q178H/Q39Y/R42S/S66N/T106N/T262R/W38E/Y61H)
[2] = biological target: HLA-DR DRB1*0401 (DR4) (Homo sapiens, UniProt P01903+P01911, A100K/A169T/F76Y/I96L/K127E/L162R/M171V/N62H/P40V/Q125Y/R42H/S133A/S149N/S66Y/V115G/V209L/W38E); conditions: DRB1 *0401
[3] = biological target: HLA-DR DRB3*0101 (DR52) (Homo sapiens, UniProt P01903+P79483)
[4] = biological target: HLA-DR DRB1*1101 (DR11) (Homo sapiens, UniProt P01903+P01911, A100R/A169T/A87E/I96F/K41T/L162R/M171V/P40S/Q125H/Q178H/Q39Y/Q99D/R42S/S66Y/T262R/V115G/W38E)
[5] = biological target: HLA-DR DRB1*0901 (DR9) (Homo sapiens, UniProt P01903+P01911, A100R/A103E/D57H/D86V/F55Y/F60I/F76Y/I96F/K127E/L162R/M171V/P40D/Q125H/Q99R/R33Q/R42F/S133A/S66N/T210M/V115G/W38K/Y107V/Y59G/Y89S); conditions: DRB1 *0901
[6] = biological target: HLA-DR DRB1*0701 (DR7) (Homo sapiens, UniProt P01903+P01911, A100R/A102G/A103Q/D57E/D86V/E43K/F76Y/K127E/L162R/M171V/P40G/Q125H/Q99D/R33Q/R42Y/R54Q/S133A/S66F/T210M/V115G/Y107V/Y59L/Y89S)
[7] = biological target: HLA-DR DRB1*1302 (DR13) (Homo sapiens, UniProt P01903+P01911, A100E/A169T/K41T/L162R/M171V/P40S/Q125H/Q178H/Q39Y/Q99D/R42S/S66N/T262R/V115G/W38E/Y61H)
[8] = biological target: HLA-DR DRB5*0101 (DR51) (Homo sapiens, UniProt P01903+Q30154)
[9] = biological target: HLA-DR DRB4*0101 (DR53) (Homo sapiens, UniProt P01903+P13762, G164S)
[10] = biological target: HLA-DR DRB1*0101 (DR1) (Homo sapiens, UniProt P01903+P01911, A100R/D57E/F55L/F60I/F76Y/I96L/L162R/M171V/P40L/Q125E/R42F/V115G/Y59C)
[11] = biological target: HLA-DR DRB1*1501 (DR15) (Homo sapiens, UniProt P01903+P01911)

HLA-DR DRB1*0301 (DR3), sequence (P01903 26-254 limits assumed, other chains not shown): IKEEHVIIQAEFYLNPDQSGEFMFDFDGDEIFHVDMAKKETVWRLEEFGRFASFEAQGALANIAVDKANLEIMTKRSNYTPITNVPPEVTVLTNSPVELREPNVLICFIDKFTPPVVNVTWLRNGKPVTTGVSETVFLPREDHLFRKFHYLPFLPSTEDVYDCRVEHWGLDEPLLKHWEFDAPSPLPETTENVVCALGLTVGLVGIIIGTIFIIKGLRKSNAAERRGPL
HLA-DR DRB1*1302 (DR13), sequence (P01903 26-254 limits assumed, other chains not shown): as above
HLA-DR DRB1*1101 (DR11), sequence (P01903 26-254 limits assumed, other chains not shown): as above

| Compound | IC50 [1] [µM] | IC50 [2] [µM] | IC50 [3] [µM] | IC50 ([4]; DRB1 *1101) [µM] | IC50 [5] [µM] | IC50 ([6]; DRB1 *0701) [µM] | IC50 ([7]; DRBI *1302) [µM] | IC50 ([8]; DRB5 *0101) [µM] | IC50 ([9]; DRB4 *0101) [µM] | IC50 ([10]; DRB1 *0101) [µM] | IC50 ([11]; DRBI *1501) [µM] | IC50 [11] [µM] | IC50 [6] [µM] | IC50 [4] [µM] | IC50 [7] [µM] | IC50 [8] [µM] | IC50 [9] [µM] | IC50 [10] [µM] |
| --- | --- | --- | --- | --- | --- | --- | --- | --- | --- | --- | --- | --- | --- | --- | --- | --- | --- | --- |
| GMLPVCPLIPGSSTTSTGP | > 900 | 0.4 | > 25 | 2.5 |  |  |  |  |  |  |  |  |  |  |  |  |  |  |
| CC[C@H](C)[C@H](NC(=O)[C@H](Cc1c[nH]cn1)NC(=O)[C@H](CCSC)NC(=O)[C@H](CCCCN)NC(=O)[C@@H](NC(=O)[C@H](CCCCN)NC(=O)[C@H](CCC(N)=O)NC(=O)[C@@H](NC(=O)[C@H](CO)NC(=O)[C@H](Cc1ccccc1)NC(=O)[C@H](CC(N)=O)NC(=O)CNC(=O)[C@@H](N)[C@@H](C)O)[C@@H](C)O)C(C)C)C(=O)N[C@@H](Cc1c[nH]cn1)C(=O)N[C@@H](CO)C(=O)O |  |  | > 11.8 | 11.9 | 1.45 | 9.41 | 6.19 | 1.93 | 0.508 | 11.2 |  |  |  |  |  |  |  |  |
| CC[C@H](C)[C@H](NC(=O)[C@H](CC(N)=O)NC(=O)[C@H](CCC(=O)O)NC(=O)[C@H](C)NC(=O)[C@H](CCCCN)NC(=O)[C@H](CC(C)C)NC(=O)[C@H](CCC(=O)O)NC(=O)[C@H](CC(=O)O)NC(=O)[C@@H](N)CC(C)C)C(=O)N[C@@H](CCCCN)C(=O)N[C@@H](CCCCN)C(=O)N[C@@H](Cc1ccccc1)C(=O)N[C@@H](CC(C)C)C(=O)N[C@@H](Cc1ccc(O)cc1)C(=O)N[C@@H](CC(N)=O)C(=O)O |  | 4.84 | 0.548 | 0.324 | 12.8 | 7.47 |  | 0.15 | 0.788 | 1.14 |  |  |  |  |  |  |  |  |
| CSCC[C@H](NC(=O)[C@@H]1CCCN1C(=O)[C@H](CC(=O)O)NC(=O)[C@@H](N)Cc1ccc(O)cc1)C(=O)N[C@@H](Cc1ccccc1)C(=O)N[C@@H](CCCCN)C(=O)N[C@@H](Cc1ccc(O)cc1)C(=O)N[C@@H](Cc1c[nH]cn1)C(=O)N[C@@H](CC(C)C)C(=O)N[C@H](C(=O)N[C@H](C(=O)N[C@@H](C)C(=O)N[C@@H](CCC(N)=O)C(=O)N[C@H](C(=O)N[C@@H](CCCNC(=N)N)C(=O)O)C(C)C)C(C)C)[C@@H](C)O | > 75 | 0.019 | 8.14 | 0.252 |  | 0.158 | 1.01 | 0.062 | 0.553 | 0.009 | 1.35 |  |  |  |  |  |  |  |
| GAPLGGALRALAHGV | > 486 | 15 | > 51.1 |  |  |  |  |  |  |  |  | 2.07 | 1.42 | 0.083 | 0.34 | 5.4 | 4.89 | 0.068 |
| CSCC[C@H](NC(=O)[C@H](CC(=O)O)NC(=O)[C@H](Cc1ccc(O)cc1)NC(=O)[C@H](CC(C)C)NC(=O)[C@@H]1CCCN1C(=O)[C@H](Cc1c[nH]cn1)NC(=O)[C@@H]1CCCN1C(=O)[C@H](Cc1ccccc1)NC(=O)[C@H](CO)NC(=O)[C@H](Cc1c[nH]cn1)NC(=O)[C@H](CO)NC(=O)[C@@H](NC(=O)[C@H](CCC(N)=O)NC(=O)[C@H](Cc1ccccc1)NC(=O)[C@@H](N)C(C)C)C(C)C)C(=O)O | > 75 | 0.025 | 23.4 |  | 0.017 | 0.051 | 0.083 |  | > 12.5 | 0.016 | 2.4 |  |  |  |  |  |  |  |
| AFGSMAKKGEEQNVRSAGEL | > 30 | > 0.667 | > 33.3 | 1.82 |  | > 12.5 |  |  |  |  |  |  |  |  |  |  |  |  |
| DIAAKYKELGY | > 900 | > 0.471 | > 25 | > 10 |  |  |  | ≥ 200 |  |  |  |  |  |  |  |  |  |  |
| AATYNFAVLKLMGRGTKF | > 52.9 |  | 70 | 0.017 |  |  |  | 0.018 | 1.22 |  |  |  |  |  |  |  |  |  |
| C[C@@H](O)[C@H](NC(=O)[C@H](CCCCN)NC(=O)[C@H](CCC(=O)O)NC(=O)[C@H](CCC(=O)O)NC(=O)CNC(=O)[C@H](Cc1ccccc1)NC(=O)[C@H](CCCNC(=N)N)NC(=O)[C@H](Cc1ccccc1)NC(=O)[C@H](CO)NC(=O)[C@H](CCC(=O)O)NC(=O)[C@H](CCC(=O)O)NC(=O)[C@@H]1CCCN1C(=O)[C@@H]1CCCN1)C(=O)N[C@H](C(=O)N1CCC[C@H]1C(=O)N[C@@H](CO)C(=O)O)[C@@H](C)O | > 900 |  | > 14.3 | > 10 |  | > 12.5 |  | > 2.86 |  | > 2.5 |  |  |  |  |  |  |  |  |
| CSCC[C@H](NC(=O)[C@@H](N)Cc1c[nH]c2ccccc12)C(=O)N[C@@H](Cc1ccc(O)cc1)C(=O)N[C@@H](Cc1ccc(O)cc1)C(=O)N[C@@H](Cc1c[nH]cn1)C(=O)NCC(=O)N[C@@H](CCC(N)=O)C(=O)N[C@@H](CCCNC(=N)N)C(=O)N[C@@H](Cc1c[nH]cn1)C(=O)N[C@@H](CO)C(=O)N[C@@H](CC(=O)O)C(=O)N[C@@H](CCC(=O)O)C(=O)N[C@@H](Cc1c[nH]cn1)C(=O)N[C@@H](Cc1c[nH]cn1)C(=O)N[C@@H](Cc1c[nH]cn1)C(=O)O | > 900 |  | > 7.69 | > 10 |  | > 250 |  | > 5 |  | ≥ 50 |  |  |  |  |  |  |  |  |
| CC(C)C[C@H](NC(=O)CNC(=O)[C@H](CC(N)=O)NC(=O)[C@H](Cc1ccc(O)cc1)NC(=O)[C@@H](NC(=O)[C@H](CC(=O)O)NC(=O)[C@@H](N)CC(C)C)C(C)C)C(=O)N[C@@H](CC(C)C)C(=O)N1CCC[C@H]1C(=O)N1CCC[C@H]1C(=O)N[C@@H](Cc1ccc(O)cc1)C(=O)N[C@@H](C)C(=O)N[C@@H](CO)C(=O)N[C@@H](CS)C(=O)N[C@@H](Cc1c[nH]cn1)C(=O)O |  | 0.348 | > 15 |  | 31.3 | > 83.3 | > 35 | 25.8 | > 10.9 | 0.015 | 3.03 |  |  |  |  |  |  |  |
| QKGRGYRGQHQAHSLERVCH | > 47.4 | 0.088 | > 500 | 30.2 |  |  |  | 9.76 | 18 |  | > 9.1 |  |  |  |  |  |  |  |
| CC(C)C[C@H](NC(=O)CNC(=O)[C@H](CC(N)=O)NC(=O)[C@H](Cc1ccc(O)cc1)NC(=O)[C@@H](NC(=O)[C@H](CC(=O)O)NC(=O)[C@H](CC(C)C)NC(=O)[C@H](C)N)C(C)C)C(=O)N[C@@H](CC(C)C)C(=O)N1CCC[C@H]1C(=O)N1CCC[C@H]1C(=O)N[C@@H](Cc1ccc(O)cc1)C(=O)N[C@@H](C)C(=O)N[C@@H](CO)C(=O)N[C@@H](CS)C(=O)O |  | 0.485 | > 15 |  | 86.6 | > 83.3 | > 35 | 115 | > 10.1 | 0.018 | 1.09 |  |  |  |  |  |  |  |
